Experiments:
TTR in HUH7 cells = assay: In vitro editing in HUH7 cells, LNP with Cas9 mRNA and sgRNA G000502, NGS; format: cell-based, human; conditions: Table 14; 2000 ng RNA per well, cells harvested 6 hours post-transfection, biological duplicate, G000502 target locus
Description: A series of compounds based on Compound 46 that vary by the inclusion of a C4-12 alkyl at the R^3 position of Formula (IA) (as illustrated in FIG. 13A) were tested for in vitro editing. The human hepatocellular carcinoma cell line […] (Japanese Collection of Research Bioresources Cell Bank, Cat. JCRB0403) was cultured in DMEM media supplemented with 10% fetal bovine serum and 1% Penicillin-Streptomycin. Cells were plated at a density of 20,000 cells/well in a 96-well plate 24 hours prior to transfection (˜80% confluent at time of transfection). The LNPs were formulated at a 1:2 w/w ratio of sgRNA and Cas9 mRNA using the cross flow procedure with lipid molar compositions as described in Table 13 at an N/P ratio of 6.0. LNP compositions were analyzed for average particle size, polydispersity (pdi), total RNA content and encapsulation efficiency of RNA as described in Example 115. Analysis of average particle size, polydispersity (PDI), total RNA content and encapsulation efficiency of RNA are shown in Table 13. LNPs were diluted into media, incubated for 5 minutes at 37 C and pipetted onto cells at a dose of 2000 ng RNA per well. Each condition was assayed in biological duplicate. Cells were harvested post-transfection at 6 hours. Genomic DNA was extracted using 50 μL/well BuccalAmp DNA Extraction solution (Epicentre, Cat. QE09050) according to manufacturer's protocol. All DNA samples were subjected to PCR and subsequent NGS analysis for editing at the G000502 target locus, as described above. As shown in Table 14 and FIG. 13B, all compounds tested were efficacious for in vitro editing.

mouse TTR gene = assay: In vivo editing in mouse liver, LNP with Cas9 mRNA and sgRNA G282, NGS; conditions: for Mean % Indel: Table 5
Description: (§1) LNPs were prepared using various amine lipids in a 4-component lipid system consisting of an ionizable lipid (e.g. an amine lipid), DSPC, cholesterol and PEG-2k-DMG. In assays for percent liver editing in mice, Cas9 mRNA and chemically modified sgRNA targeting a mouse sequence were formulated in LNPs, at either a 1:1 w/w ratio or a 1:2 w/w ratio.
(§2) The lipid components were dissolved in 100% ethanol with the lipid component molar ratios described below. The chemically modified sgRNA and Cas9 mRNA were combined and dissolved in 25 mM citrate, 100 mM NaCl, pH 5.0, resulting in a concentration of total RNA cargo of approximately 0.45 mg/mL. The LNPs were formulated with an N/P ratio of about 6, with the ratio of chemically modified sgRNA: Cas9 mRNA at either a 1:1 or 1:2 w/w ratio as described below.
(§3) CD-1 female mice, ranging from 6-10 weeks of age were used in each study. Animals were weighed and grouped according to body weight for preparing dosing solutions based on group average weight. LNPs were dosed via the lateral tail vein in a volume of 0.2 mL per animal (approximately 10 mL per kilogram body weight). The animals were periodically observed for adverse effects for at least 24 hours post dose.
(§4) For studies measuring in vivo editing in liver, CD-1 female mice were dosed at 0.1 mpk unless otherwise noted. Animals were euthanized at 6 or 7 days by exsanguinationvia cardiac puncture under isoflourane anesthesia. Liver tissue was collected from each animal for DNA extraction and analysis. Blood was collected into serum separator tubes or into tubes containing buffered sodium citrate for plasma as described herein. Cohorts of mice were measured for editing by Next-Generation Sequencing (NGS).
(§5) In brief, to quantitatively determine the efficiency of editing at the target location in the genome, genomic DNA was isolated and deep sequencing was utilized to identify the presence of insertions and deletions introduced by gene editing.
(§6) PCR primers were designed around the target site (e.g., B2M), and the genomic area of interest was amplified. Additional PCR was performed according to the manufacturer's protocols (Illumina) to add the necessary chemistry for sequencing. The amplicons were sequenced on an Illumina MiSeq instrument. The reads were aligned to the relevant reference genome (e.g., GRCm38) after eliminating those having low quality scores. The resulting files containing the reads were mapped to the reference genome (BAM files), where reads that overlapped the target region of interest were selected and the number of wild type reads versus the number of reads which contain an insertion, substitution, or deletion was calculated.
(§7) The editing percentage (e.g., the “editing efficiency” or “percent editing”) is defined as the total number of sequence reads with insertions or deletions over the total number of sequence reads, including wild type.
(§8) We assessed in vivo editing efficiency for materials delivered with formulations including various amine lipid compounds. Editing was measured using either G282 (SEQ ID No: 1) which targets the mouse TTR gene or G650 (SEQ ID No. 2) which targets the mouse B2M gene. Lipids described above were assessed for efficacy through in vivo editing experiments. LNPs were formulated at a 1:1 w/w ratio of sgRNA to Cas9 mRNA, and at an N/P ratio of about 6. Molar concentrations of lipids in the lipid component of the LNPs are expressed as mol % amine lipid/DSPC/cholesterol/PEG-2k-DMG, e.g. 50/10/38.5/1.5. The final LNPs were characterized to determine the encapsulation efficiency, polydispersity index, and average particle size according to the analytical methods provided above. Analysis of average particle size, polydispersity (PDI), total RNA content and encapsulation efficiency of RNA are shown in Table 2.
To assess whether the editing was dose responsive, experiments were performed in vivo at various LNP dose levels. […]

mouse B2M gene = assay: In vivo editing in mouse liver, LNP with Cas9 mRNA and sgRNA G650, NGS; conditions: Table 3; guide G650; CD-1 female mice, 0.1 mpk i.v., liver at 6 or 7 days; Exp. 2-7
Description: as §1, §2, §3, §4, §5, §6, §7, §8

rat TTR [1] = assay: In vivo editing in rat liver, LNP with Cas9 mRNA and sgRNA G534, NGS; conditions: Table 11, Sprague Dawley female rats i.v., liver 6-7 days post dose
Description: as §5, §6, §7
To assess lipid efficacy, dose response experiments were performed in vivo. Cas9 mRNA of Example 115 was formulated as LNPs with a gRNA targeting TTR (G00534; SEQ ID NO: 5). These LNPs were formulated, prepared and analyzed as described in Example 115 using a 1:2 w/w ratio of a sgRNA and Cas9 mRNA. Composition analysis for these LNPs are described in Table 10.
For efficacy, Sprague Dawley female rats were dosed i.v. at 0.1 mpk or 0.03 mpk. 6-7 days post dose, rats were euthanized by CO2 asphyxiation. Blood was collected into serum separator tubes. Liver biopsy processed for gDNA and assessed for editing by NGS methods described in Example 115. Results are shown in Table 11 and FIGS. 12A and 12B. For tolerability, Sprague Dawley female rats were dosed at 6 mpk and 24 hours post dose the animals were euthanized by CO2 asphyxiation. Blood was collected into serum separator tubes and sent to an external CRO for quantitation of liver enzymes via a liver enzyme panel.

rat TTR [2] = assay: Serum TTR levels in rats after LNP delivery; format: in vivo; conditions: Table 11, G534, Sprague Dawley female rats i.v.
[3] = Table 3, guide G282, CD-1 female mice, 0.1 mpk i.v., liver at 6 or 7 days, Exp. 1, 8, 9, 10
[4] = G00282, CD-1 female mice i.v., dose 0.1 mpk, liver
[5] = G00282, CD-1 female mice i.v., dose 0.3 mpk, liver

CCCCC/C=C\C/C=C\CCCCCCCC(=O)OCC(COC(=O)CCCCCCC/C=C\C/C=C\CCCCC)OC(=O)CCC(CCCCCCCC)OC(=O)NCCN1CCCC1 (stereo not drawn) [Compound 51, 2-((4-(((2-(pyrrolidin-1-yl)ethyl)carbamoyl)oxy)dodecanoyl)oxy)propane-1,3-diyl (9Z,9′Z,12Z,12′Z)-bis(octadeca-9,12-dienoate)]
Editing (TTR in HUH7 cells): 69.0%

CCCCC/C=C\C/C=C\CCCCCCCC(=O)OCC(COC(=O)CCCCCCC/C=C\C/C=C\CCCCC)OC(=O)CCC(CCCCCC)OC(=O)NCCN(C)CC (stereo not drawn) [Compound 40, 2-((4-(((2-(ethyl(methyl)amino)ethyl)carbamoyl)oxy)decanoyl)oxy)propane-1,3-diyl (9Z,9′Z,12Z,12′Z)-bis(octadeca-9,12-dienoate)]
Editing Mean % Indel (mouse TTR gene; [3]): 44.7%

CCCCC/C=C\C/C=C\CCCCCCCC(=O)OCC(COC(=O)CCCCCCC/C=C\C/C=C\CCCCC)OC(=O)CCC(CCCCCCCC)OC(=O)NCC1CCCN1C (stereo not drawn) [Compound 35, 2-((4-((((1-methylpyrrolidin-2-yl)methyl)carbamoyl)oxy)dodecanoyl)oxy) propane-1,3-diyl (9Z,9′Z,12Z,12′Z)-bis(octadeca-9,12-dienoate)]
Editing Mean % Indel (mouse B2M gene): 35.5%

CCCCC/C=C\C/C=C\CCCCCCCC(=O)OCC(COC(=O)CCCCCCC/C=C\C/C=C\CCCCC)OC(=O)CCC(CCCCCCCCCCCC)OC(=O)NCCN(C)CC (stereo not drawn) [Compound 7, 2-((4-(((2-(ethyl(methyl)amino)ethyl)carbamoyl)oxy)hexadecanoyl)oxy)propane-1,3-diyl (9Z,9′Z,12Z,12′Z)-bis(octadeca-9,12-dienoate)]
Mean % Indel (mouse TTR gene; [4]): 49.1% | Mean % Indel (mouse TTR gene; [5]): 69.4% | Editing Mean % Indel (mouse B2M gene): 22.6%

CCCCC/C=C\C/C=C\CCCCCCCC(=O)OCC(COC(=O)CCCCCCC/C=C\C/C=C\CCCCC)OC(=O)CCC(CCCCCCCCCCCC)OC(=O)OCCCN(C)C (stereo not drawn) [Compound 1, 2-((4-(((3-(dimethylamino)propoxy)carbonyl)oxy)hexadecanoyl)oxy)propane-1,3-diyl (9Z,9′Z,12Z,12′Z)-bis(octadeca-9,12-dienoate)]
Editing Mean % Indel (mouse TTR gene; [3]): 13.1%

CCCCC/C=C\C/C=C\CCCCCCCC(=O)OCC(COC(=O)CCCCCCC/C=C\C/C=C\CCCCC)OC(=O)CCC(CCCCCCCCCCCC)OC(=O)OCCCN1CCCC1 (stereo not drawn) [Compound 5, 2-((4-(((3-(pyrrolidin-1-yl)propoxy)carbonyl)oxy)hexadecanoyl)oxy)propane-1,3-diyl (9Z,9′Z,12Z,12′Z)-bis(octadeca-9,12-dienoate)]
Editing Mean % Indel (mouse TTR gene; Table 7, G00282, CD-1 female mice i.v., dose 0.1 mpk, liver): 26.1% | Editing Mean % Indel (mouse TTR gene; Table 7, G00282, CD-1 female mice i.v., dose 0.3 mpk, liver): 52.5% | efficacy for in vivo editing (in words) (mouse TTR gene; mouse liver, Examples 116 and 118): efficacious | Editing Mean % Indel (mouse B2M gene): 17.5%

CCCCC/C=C\C/C=C\CCCCCCCC(=O)OCC(COC(=O)CCCCCCC/C=C\C/C=C\CCCCC)OC(=O)CCC(CCCCC)OC(=O)NCCN1CCCC1 (stereo not drawn) [Compound 72, 2-((4-(((2-(pyrrolidin-1l-yl)ethyl)carbamoyl)oxy)nonanoyl)oxy)propane-1,3-diyl (9Z,9′Z,12Z,12′Z)-bis(octadeca-9,12-dienoate)]
Editing (TTR in HUH7 cells): 65.8%

CCCCC/C=C\C/C=C\CCCCCCCC(=O)OCC(COC(=O)CCCCCCC/C=C\C/C=C\CCCCC)OC(=O)CCC(CCCCCCCCCCCC)OC(=O)NCC1CCCN1C (stereo not drawn) [Compound 9, 2-((4-((((1-methylpyrrolidin-2-yl)methyl)carbamoyl)oxy)hexadecanoyl)oxy) propane-1,3-diyl (9Z,9′Z,12Z,12′Z)-bis(octadeca-9,12-dienoate)]
Editing Mean % Indel (mouse TTR gene; [3]): 44.1% | Mean % Indel (mouse TTR gene; [4]): 50.6% | Mean % Indel (mouse TTR gene; [5]): 64.5% | Editing Mean % Indel (mouse B2M gene): 20.3%

CCCCC/C=C\C/C=C\CCCCCCCC(=O)OCC(COC(=O)CCCCCCC/C=C\C/C=C\CCCCC)OC(=O)CCC(CCCCCCCC)OC(=O)OCCCN1CCCC1 (stereo not drawn) [Compound 36, 2-((4-(((3-(pyrrolidin-1-yl)propoxy)carbonyl)oxy)dodecanoyl)oxy)propane-1,3-diyl (9Z,9′Z,12Z,12′Z)-bis(octadeca-9,12-dienoate)]
Editing Mean % Indel (mouse B2M gene): 30.0%

CCCCC/C=C\C/C=C\CCCCCCCC(=O)OCC(COC(=O)CCCCCCC/C=C\C/C=C\CCCCC)OC(=O)CCC(CCCCCC)OC(=O)OCCCN1CCCC1 (stereo not drawn) [Compound 45, 2-((4-(((3-(pyrrolidin-1-yl)propoxy)carbonyl)oxy)decanoyl)oxy)propane-1,3-diyl (9Z,9′Z,12Z,12′Z)-bis(octadeca-9,12-dienoate)]
Editing % Editing (rat TTR [1]; dose 0.03 mpk): 10.76% | Editing % Editing (rat TTR [1]; dose 0.1 mpk): 48.16% | Serum TTR (rat TTR [2]; dose 0.03 mpk): 910.4 µg/mL | Serum TTR % TSS (rat TTR [2]; dose 0.03 mpk): 110% TSS | Serum TTR (rat TTR [2]; dose 0.1 mpk): 270.7 µg/mL | Serum TTR % TSS (rat TTR [2]; dose 0.1 mpk): 32% TSS

CCCCC/C=C\C/C=C\CCCCCCCC(=O)OCC(COC(=O)CCCCCCC/C=C\C/C=C\CCCCC)OC(=O)CCC(CCCCCCCCCC)OC(=O)NCCN(C)CC (stereo not drawn) [Compound 39, 2-((4-(((2-(ethyl(methyl)amino)ethyl)carbamoyl)oxy)tetradecanoyl)oxy)propane-1,3-diyl (9Z,9′Z,12Z,12′Z)-bis(octadeca-9,12-dienoate)]
Editing Mean % Indel (mouse TTR gene; [3]): 36.5%
